Source: the CheMixHub ionic liquid set

Test: xn = mol fraction of the nth substance listed

O=C([O-])[O-].[Na+].[Na+] + CCCCCCCCCCCC[N+](C)(C)C.[Br-] + O
298.15 K, 101 kPa
Details	electrical conductivity [S/m]
x1 = 0.0001801, x2 = 7.809e-05	0.2221
x1 = 0.0001801, x2 = 8.963e-05	0.2267
x1 = 0.0001801, x2 = 0.000101	0.2313
x1 = 0.0001801, x2 = 0.0001125	0.2359
x1 = 0.0001801, x2 = 0.0001241	0.2404
x1 = 0.0001801, x2 = 0.0001356	0.2449
x1 = 0.0001801, x2 = 0.0001466	0.2493
x1 = 0.0001801, x2 = 0.000158	0.2537
x1 = 0.0001801, x2 = 0.000169	0.2579
x1 = 0.0001801, x2 = 0.00018	0.2622
x1 = 0.0001801, x2 = 0.0001908	0.2663
x1 = 0.0001801, x2 = 0.0002018	0.2705
x1 = 0.0001801, x2 = 0.0002126	0.2745
x1 = 0.0001801, x2 = 0.0002234	0.278
x1 = 0.0001801, x2 = 0.000234	0.2806
x1 = 0.0001801, x2 = 0.0002447	0.2825
x1 = 0.0001801, x2 = 0.0002551	0.2841
x1 = 0.0001801, x2 = 0.0002658	0.2855
x1 = 0.0001801, x2 = 0.0002762	0.2868
x1 = 0.0001801, x2 = 0.0002867	0.288
x1 = 0.0001801, x2 = 0.0002986	0.2893
x1 = 0.0001801, x2 = 0.0003116	0.2908
x1 = 0.0001801, x2 = 0.000342	0.2939
x1 = 0.0001802, x2 = 0	0.1927
x1 = 0.0001802, x2 = 2.16e-06	0.1931
x1 = 0.0001802, x2 = 4.51e-06	0.1938
x1 = 0.0001802, x2 = 7.94e-06	0.1951
x1 = 0.0001802, x2 = 1.154e-05	0.1963
x1 = 0.0001802, x2 = 1.659e-05	0.1981
x1 = 0.0001802, x2 = 2.309e-05	0.2004
x1 = 0.0001802, x2 = 3.174e-05	0.2037
x1 = 0.0001802, x2 = 4.31e-05	0.2082
x1 = 0.0001802, x2 = 5.483e-05	0.2128
x1 = 0.0001802, x2 = 6.655e-05	0.2175
x1 = 0.001798, x2 = 0.0001498	1.359
x1 = 0.001798, x2 = 0.0001618	1.363
x1 = 0.001798, x2 = 0.0001776	1.367
x1 = 0.001798, x2 = 0.0001934	1.371
x1 = 0.001798, x2 = 0.000209	1.374
x1 = 0.001798, x2 = 0.0002246	1.377
x1 = 0.001798, x2 = 0.0002401	1.38
x1 = 0.001798, x2 = 0.0002555	1.383
x1 = 0.001798, x2 = 0.0002702	1.386
x1 = 0.001798, x2 = 0.0002851	1.389
x1 = 0.001798, x2 = 0.0003037	1.393
x1 = 0.001798, x2 = 0.0003216	1.396
x1 = 0.001798, x2 = 0.0003394	1.399
x1 = 0.001798, x2 = 0.0003576	1.402
x1 = 0.001798, x2 = 0.0003752	1.405
x1 = 0.001798, x2 = 0.0003925	1.408
x1 = 0.001799, x2 = 0	1.335
x1 = 0.001799, x2 = 8.18e-06	1.333
x1 = 0.001799, x2 = 1.563e-05	1.333
x1 = 0.001799, x2 = 2.381e-05	1.333
x1 = 0.001799, x2 = 3.217e-05	1.333
x1 = 0.001799, x2 = 4.072e-05	1.334
x1 = 0.001799, x2 = 5.126e-05	1.335
x1 = 0.001799, x2 = 6.398e-05	1.338
x1 = 0.001799, x2 = 7.671e-05	1.34
x1 = 0.001799, x2 = 8.888e-05	1.343
x1 = 0.001799, x2 = 0.0001014	1.346
x1 = 0.001799, x2 = 0.0001138	1.349
x1 = 0.001799, x2 = 0.000126	1.352
x1 = 0.001799, x2 = 0.0001379	1.355

O=C(CO)[C@@H](O)[C@H](O)[C@@H](O)CO + CCCCCCCCCCCCCCCC[N+](C)(C)C.[Br-] + O
viscosity [mPa·s], 100 kPa
Details	298.15 K	308.15 K	318.15 K
x2 = 7.19e-06, x1 = 0.002005	0.946	0.782	0.65
x2 = 7.19e-06, x1 = 0.002298	0.954	0.788	0.655
x2 = 7.19e-06, x1 = 0.002748	0.965	0.797	0.662
x2 = 7.2e-06, x1 = 0.0007582	0.915	0.757	0.629
x2 = 7.2e-06, x1 = 0.001199	0.926	0.766	0.637
x2 = 7.2e-06, x1 = 0.001449	0.932	0.771	–
x2 = 1.438e-05, x1 = 0.00232	0.96	0.793	0.658
x2 = 1.438e-05, x1 = 0.002732	0.971	0.802	0.665
x2 = 1.439e-05, x1 = 0.00146	0.937	–	–
x2 = 1.439e-05, x1 = 0.001979	0.951	0.786	0.652
x2 = 1.44e-05, x1 = 0.0008896	0.922	0.763	0.633
x2 = 1.44e-05, x1 = 0.001296	0.933	0.771	0.64
x2 = 2.156e-05, x1 = 0.002717	0.975	0.805	0.667
x2 = 2.157e-05, x1 = 0.002351	0.965	0.797	0.66
x2 = 2.158e-05, x1 = 0.001965	0.954	0.789	0.653
x2 = 2.159e-05, x1 = 0.001383	0.938	0.776	0.642
x2 = 2.159e-05, x1 = 0.001661	0.946	0.782	0.647
x2 = 2.16e-05, x1 = 0.001025	0.928	0.768	0.636

CC[NH+](C)CC.O=S(=O)([O-])C(F)(F)F + O + CC[NH+](C)CC.CS(=O)(=O)[O-]
viscosity [mPa·s], 101 kPa
Details	x2 = 0.027, x1 = 0.973	x2 = 0.05, x1 = 0.717	x2 = 0.07, x1 = 0.498	x2 = 0.089, x1 = 0.309	x2 = 0.107, x1 = 0.143	x2 = 0.114, x1 = 0.069
293.15 K	53.3	78.1	101.7	116.8	125.2	128.3
313.15 K	25.8	34	40.9	44.4	45.8	46.1
333.15 K	14.6	17.9	20.4	21.4	21.6	21.7
353.15 K	9.18	10.7	11.74	12.07	12.03	12.06

CCCC[n+]1ccn(C)c1.O=C([O-])C(F)(F)F + OCCOCCOCCOCCO
298.15 K, 101 kPa
Details	viscosity [mPa·s]
x2 = 0	71.1
x2 = 0.5	71
